Data taken from US20030175438A1, “Treatments of solid substrates to enhance durability of treatments placed thereon” (priority 2002, published 2003).

Tests used:
E. coli = test: CTM-0923 Dynamic Shake Flask Test (antimicrobial efficacy of treated fabric); type: cell-based; set-up: concentration or dose not given beside the values
Description: Sample Preparation: Fabric samples were obtained from the JoAnn fabric chain and were commercial fabrics. […] The treatment solutions were allowed to hydrolyze from the trimethoxysilyl form to the trisilanol form before adding the fabrics. This takes only a few minutes to essentially complete. The solution temperature was raised to 100° C. before treating the fabrics for 60 seconds by immersion in the solutions with moderate agitation of the solution within the flask. After removing the samples from the hot solution, they were nip rolled to remove excess liquid. […] The samples were air dried before testing unless otherwise noted. The Extraction, stated in percent, was measured using the Bromphenol Blue Extraction Method using spectrophotometric determination. This method is CTM 0824, which has been modified for use herein in the following manner. The chlorinated solvent has been eliminated and the wavelength is 595 nm. Further, Dow Corning® […] has been substituted for the Triton.RTM. X-100 wetting agent of the test. What is measured is the diminution of the BPB Absorbance at 595 nm relative to the BPB standard solution and it is reported in percent Extraction. Antimicrobial efficacy was determined using the CTM-0923 Dynamic Shake Flask Test unless otherwise stated. Samples were air dried before testing. The % extraction was measured using the BPB extraction Method using spectrophotometric determination at 595 nm. Antimicrobial efficacy was determined, when applicable, using the ASTM CTM 0923 Dynamic Shake Flask Test. The substrate may be either wet or dry. The testing results can be found on Tables XI and XII, respectively, infra.

[1] = Bromphenol Blue (BPB) Extraction Method, spectrophotometric at 595 nm (modified CTM 0824), on treated fabric; type: physicochemical; conditions: for Strike Rate - % BPB Extraction: No Boil, Table XIII
Description: Sample Preparation: Fabric samples were obtained from the JoAnn fabric chain and were commercial fabrics. The fabrics were cut into rectangular size and were about 1½ inches by 2 inches, and were treated in 0.15 weight percent active antimicrobial agent placed in an Erlenmeyer flask. The agent used in this example was N, N-dimethyl-N-Octadecyl-3-(trimethoxysilyl)propanaminium chloride. The treatment solutions were allowed to hydrolyze from the trimethoxysilyl form to the trisilanol form before adding the fabrics. This takes only a few minutes to essentially complete. The solution temperature was raised to 100° C. before treating the fabrics for 60 seconds by immersion in the solutions with moderate agitation of the solution within the flask. After removing the samples from the hot solution, they were nip rolled to remove excess liquid. Wet Weight Pickup (WWP) was targeted to 100%. The samples were air dried before testing unless otherwise noted. The Extraction, stated in percent, was measured using the Bromphenol Blue Extraction Method using spectrophotometric determination. This method is CTM 0824, which has been modified for use herein in the following manner. The chlorinated solvent has been eliminated and the wavelength is 595 nm. Further, Dow Corning® A521 has been substituted for the Triton.RTM. X-100 wetting agent of the test. What is measured is the diminution of the BPB Absorbance at 595 nm relative to the BPB standard solution and it is reported in percent Extraction. Antimicrobial efficacy was determined using the CTM-0923 Dynamic Shake Flask Test unless otherwise stated.
The antimicrobial agent used in this example was the same as that used in example 1. The samples were handled the same as in example 1 with the exception of the following. Samples were air and/or oven dried before testing. The % Extraction was measured using the BPB Extraction Method using spectrophotometric determination at 595 nm. If determined, antimicrobial efficacy was determined using the CTM-0923 Dynamic Shake Flask Test. Co-treatments the addition of the fabric to a 0.20 molar solution of the anion plus 0.15 WPA antimicrobial agent. The co-treatment is carried out at 100° C., and the fabric was moderately agitated for 60 seconds. The antimicrobial treatment is the addition of the fabric to a solution of 0.15 WPA antimicrobial agent held at 100° C. with moderate agitation for 60 seconds. Excess solution is removed from the samples, and the WWP is determined by weighing. Boiling was done with 200 milliliters of distilled water in a glass container in a microwave oven. Power setting was 30%, and the solution was gently boiled for 30 minutes. Sample size was nominally 1 gram and fresh water was used for each boiling study. The testing results can be found on Table XIII to XIV, respectively, infra. To differentiate between the application rate of the antimicrobial on the fabric, 25% of the normal sample size, or 0.25 grams of fabric was used to obtain the BPB Extraction values that ranged between 5 and 99%. This yielded values of percent BPB extraction that were in the linear range of the test procedure. Using larger samples creates an inaccurate test.

Question: Which results are given for `CCCCCCCCCCCCCCCCCC[N+](C)(C)CCC[Si](OC)(OC)OC.[Cl-]` [AMT, N, N-dimethyl-N-Octadecyl-3-(trimethoxysilyl)propanaminium chloride]?
Answer: Efficacy - % Reduction (E. coli; ACRYLIC/MODACRYLIC, boiled 30 minutes, Table V): 84%; Efficacy - % Reduction (E. coli; ACRYLIC/MODACRYLIC, not boiled, Table V): 90%; Efficacy - % Reduction (E. coli; COTTON, boiled 30 minutes, Table V): 99%; DSF - % REDUCTION (E. coli; COTTON, boiled 30 minutes, Table VIII): 99%; DSF - % REDUCTION (E. coli; COTTON, boiled, Table X): 93%; Efficacy - % Reduction (E. coli; COTTON, not boiled, Table V): 99%; DSF - % REDUCTION (E. coli; COTTON, not boiled, Table VIII): 99%; DSF - % REDUCTION (E. coli; COTTON, not boiled, Table X): 89%; Efficacy - % Reduction (E. coli; NYLON, boiled 30 minutes, Table II): 84%; Efficacy - % Reduction (E. coli; NYLON, boiled 30 minutes, Table V): 19%; DSF - % REDUCTION (E. coli; NYLON, boiled 30 minutes, Table VIII): 22%; DSF - % REDUCTION (E. coli; NYLON, boiled, Table X): 99%; Efficacy - % Reduction (E. coli; NYLON, not boiled, Table II): 90%; Efficacy - % Reduction (E. coli; NYLON, not boiled, Table V): 99%; DSF - % REDUCTION (E. coli; NYLON, not boiled, Table VIII): 99%; DSF - % REDUCTION (E. coli; NYLON, not boiled, Table X): 99%; Efficacy - % Reduction (E. coli; PET, boiled 30 minutes, Table II): 99%; DSF - % REDUCTION (E. coli; PET, boiled 30 minutes, Table VIII): 91%; DSF - % REDUCTION (E. coli; PET, boiled, Table X (untreated control 50)): 74%; Efficacy - % Reduction (E. coli; PET, not boiled, Table II): 99%; DSF - % REDUCTION (E. coli; PET, not boiled, Table VIII): 99%; DSF - % REDUCTION (E. coli; PET, not boiled, Table X (untreated control 50)): 79%; Efficacy - % Reduction (E. coli; RAYON, boiled 30 minutes, Table II): 19%; DSF - % REDUCTION (E. coli; RAYON, boiled 30 minutes, Table VIII): 94%; DSF - % REDUCTION (E. coli; RAYON, boiled, Table X): 99%; Efficacy - % Reduction (E. coli; RAYON, not boiled, Table II): 99%; DSF - % REDUCTION (E. coli; RAYON, not boiled, Table VIII): 99%; DSF - % REDUCTION (E. coli; RAYON, not boiled, Table X): 99%; BOILED IN WATER % EXTRACTION ([1]; 130° C./30 minutes, Table XII): 27%; % BPB EXTRACTION CHANGE ([1]; COTTON, boiled vs not boiled, Table IV): −1%; EXTRACTION CHANGE ([1]; COTTON, boiled vs not boiled, Table VI): 0%; % Extraction @ 595 nm ([1]; NYLON, boiled 30 minutes, Table VI): 11%; % BPB EXTRACTION @ 595 nm ([1]; NYLON, boiled, Table IX): 19%; % BPB EXTRACTION @ 595 nm ([1]; NYLON, not boiled, Table IX): 85%; Boiling Durability % BPB EXTRACTION @ 595 nm ([1]; NYLON, not boiled, Table XVII): 80%; Strike Rate - % BPB Extraction ([1]; Nylon, 0.25 grams of fabric): 8.01%; Strike Rate - % BPB Extraction ([1]; Nylon, treatment at pH = 11): 45.1%; Strike Rate - % BPB Extraction ([1]; PET Staple, treatment at pH = 11): 75.82%; Boiling Durability - % BPB Extraction ([1]; PET, Boil 30 min., Table XIV): 17.9%; Strike Rate - % BPB Extraction ([1]; PET, treatment at pH = 11): 62.57%; % BPB EXTRACTION @ 595 nm ([1]; PET, boiled 30 minutes, Table XV): 36%; % EXTRACTION CHANGE ([1]; PET, boiled vs not boiled, Table XVII): −64%; % BPB EXTRACTION @ 595 nm ([1]; PET, not boiled, Table III): 94%; Strike Rate - % BPB Extraction ([1]; Rayon, 0.25 grams of fabric): 6.94%
